Assay results taken from patent US8399465B2, “Compounds with two fused bicyclic heteroaryl moieties as modulators of leukotriene A4 hydrolase” (Janssen Pharmaceutica NV, priority 2009, dated 2013).
pIC50: −log10 of the molar value.

Tests used:
[1] = test system: LTB4 production in murine blood (LTA4H); assay: LTB4 production by calcium ionophore-stimulated murine blood for LTA4H inhibitor activity; assay type: cell-based, CD-1 mice; details: Mus musculus; murine blood diluted 1 in 15, A23187 stimulated; single determination or average; mark after value = form tested: ′ free base, ″ hydrochloride, ^ formate; read-out: IC50
Summary of the method: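 LTB4 was measured by ELISA in supernatants after calcium ionophore A23187 stimulation (final 7 μg/mL, 30 min, 37° C) of CD-1 mouse blood collected on heparin. Compound was preincubated with the blood for 15 min beforehand. Values come from one determination or average several.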

[2] = test system: ex vivo calcium ionophore-stimulated LTB4 production in whole blood; assay: Murine arachidonic acid-induced inflammation model: ex vivo stimulated LTB4 production in blood; parameters: species or system Balb/c mice; details: Mus musculus; 30 mg/kg oral gavage; blood diluted 1:1, A23187 stimulated ex vivo; percent inhibition of LTB4 production; read-out: % Inh. LTB4
Experimental: (§1) Assay 3: Murine Arachidonic Acid-Induced Inflammation Model
(§2) LTA4H inhibitor compounds of the present invention were dissolved in 20% cyclodextran/H2O at a concentration of 3 mg/mL. The solutions were administered by oral gavage to female Balb/c mice weighing approximately 20 grams each (0.2 mL per mouse, 30 mg of LTA4H inhibitor compound per kg). Sixty minutes after being administered an LTA4 inhibitor, each mouse received topical application of 20 μL of arachidonic acid (100 mg/mL in acetone) to the left ear and 20 μL of acetone only to the right ear. After 3 h, the mice were sacrificed, blood was withdrawn in heparinized syringes, and 8 mm ear biopsies were taken. Ear biopsies were weighed to determine edema and then frozen at −80° C. until needed for determination of neutrophil influx.
The microtiter plate contents were incubated for 30 min at 37° C. in a humidified incubator. The reaction was terminated by centrifugation (833×g, 10 min at 4° C.). Supernatants were analyzed for LTB4 by a commercially available enzyme-linked immunoassay (Cayman Chemical Co.) in accordance with the manufacturer's instructions. The percent inhibition of ex vivo stimulated LTB4 production (% Inh. LTB4) was determined by comparison to animals treated identically except that the solution administered by oral gavage was devoid of inhibitor compound.

[3] = test system: arachidonic acid-induced neutrophil influx in murine ear tissue; assay: Murine arachidonic acid-induced inflammation model: neutrophil influx (myeloperoxidase) in ear; assay type: in vivo, Balb/c mice; details: Mus musculus; 30 mg/kg oral gavage, 60 min before topical arachidonic acid, ear biopsy after 3 h; percent inhibition of neutrophil influx; read-out: % Inh. MPO
Experimental: as §1, §2
Neutrophil influx was quantified by measuring the activity of myeloperoxidase (MPO), a neutrophil-specific enzyme. […] Debris was removed by centrifugation at 14000×g for 10 min. […] The microtiter plate contents were held at room temperature until the sample with the highest concentration of MPO reached an absorbance value of 0.4 at 650 nm. The reaction was stopped by addition of 50 μL 1 M H2SO4 to each sample well, and the myeloperoxidase activity in each sample was determined from the absorbance at […]. The background value from the right ear, treated only with acetone, was subtracted from that for the left ear, treated with arachidonic acid in acetone, for each animal. The percent inhibition of neutrophil influx (% Inh. MPO) by compounds of the invention was determined by comparison to animals treated identically, except that the solution administered by oral gavage was devoid of inhibitor compound. All compounds were assayed in their free base form.

[4] = biological target: T1, recombinant human LTA4 hydrolase (rhLTA4H) (Homo sapiens, UniProt P09960); assay: Recombinant human LTA4 hydrolase assay for LTA4 hydrolase inhibitor activity; assay type: biochemical; details: rhLTA4H, LTB4 by immunoassay; single determination or average of two or more; mark after value = form tested: ′ free base, ″ hydrochloride, ^ formate; read-out: IC50
T1 construct: made in house; host or cells: Spodoptera frugiperda (Sf-9) cells, baculovirus (pFastBac1)
T1 sequence (P09960 1-611): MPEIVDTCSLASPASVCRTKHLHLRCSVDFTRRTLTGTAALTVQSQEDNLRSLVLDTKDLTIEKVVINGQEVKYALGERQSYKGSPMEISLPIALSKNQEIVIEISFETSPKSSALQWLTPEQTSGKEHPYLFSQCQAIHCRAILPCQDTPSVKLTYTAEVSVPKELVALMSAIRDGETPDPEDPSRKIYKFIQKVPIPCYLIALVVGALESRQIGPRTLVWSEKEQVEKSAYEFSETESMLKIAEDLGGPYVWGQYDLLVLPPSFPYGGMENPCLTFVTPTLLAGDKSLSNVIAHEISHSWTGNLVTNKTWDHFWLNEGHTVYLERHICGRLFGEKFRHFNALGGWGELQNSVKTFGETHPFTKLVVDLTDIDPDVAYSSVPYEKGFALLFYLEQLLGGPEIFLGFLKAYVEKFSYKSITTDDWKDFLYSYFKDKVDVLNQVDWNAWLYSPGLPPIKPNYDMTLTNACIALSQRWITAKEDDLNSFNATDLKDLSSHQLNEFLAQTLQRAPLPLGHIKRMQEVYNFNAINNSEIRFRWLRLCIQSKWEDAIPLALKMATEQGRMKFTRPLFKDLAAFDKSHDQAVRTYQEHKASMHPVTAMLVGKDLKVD
Summary of the method: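 LTB4 formation, measured by enzyme immunoassay, was the read-out. The enzyme, recombinant human LTA4H expressed in Sf-9 insect cells (10 ng per reaction), was exposed to compound for 10 min at room temperature before hydrolysed-ester LTA4 substrate was added for 30 min. Enzyme-free negatives were included.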

Row | pIC50 [1] | pIC50 [4] | SMILES | inhibition at 30 mg/kg [2] | inhibition at 30 mg/kg [3]
1 | 7.55 | 8.52 | NC(=O)C1CCCN(Cc2coc3cc(Oc4nc5ncccc5s4)ccc23)C1 (stereo in doubt) [Example 216, (3S)-1-[6-(Thiazolo[4,5-b]pyridin-2-yloxy)-benzofuran-3-ylmethyl]-piperidine-3-carboxylic acid amide] | 87% | 87%
2 | 7.66 | 7.46 | CC(=O)N1CC2CN(Cc3cc4cc(Oc5nc6ncccc6s5)ccc4o3)CC2C1 (stereo not drawn) [Example 90, 1-{5-[5-(Thiazolo[4,5-b]pyridin-2-yloxy)-benzofuran-2-ylmethyl]-hexahydro-pyrrolo[3,4-c]pyrrol-2-yl}-ethanone] | 61% | 50%
3 | 7.59 | 8.30 | CC(=O)N1C[C@@H]2C[C@H]1CN2Cc1cc2cc(Oc3nc4ncccc4s3)ccc2o1 [Example 95, (1S,4S)-1-{5-[5-(Thiazolo[4,5-b]pyridin-2-yloxy)-benzofuran-2-ylmethyl]-2,5-diaza-bicyclo[2.2.1]hept-2-yl}-ethanone] | 80% | 79%
4 | 6.96 | 6.85 | O=C1CCCN1C1CCN(Cc2cc3cc(Oc4nc5ncccc5s4)ccc3o2)CC1 [Example 96, 1-{1-[5-(Thiazolo[4,5-b]pyridin-2-yloxy)-benzofuran-2-ylmethyl]-piperidin-4-yl}-pyrrolidin-2-one] | 66% | 53%
5 | 7.20 | 7.43 | c1cnc2nc(Oc3ccc4oc(CN5C[C@@H]6C[C@H]5CO6)cc4c3)sc2c1 [Example 99, (1S,4S)-2-[2-(2-Oxa-5-aza-bicyclo[2.2.1]hept-5-ylmethyl)-benzofuran-5-yloxy]-thiazolo[4,5-b]pyridine] | 15% | 58%
6 | 6.80 | 7.16 | NC(=O)N1C[C@@H]2C[C@H]1CN2Cc1cc2cc(Oc3nc4ncccc4s3)ccc2o1 [Example 100, (1S,4S)-5-[5-(Thiazolo[4,5-b]pyridin-2-yloxy)-benzofuran-2-ylmethyl]-2,5-diaza-bicyclo[2.2.1]heptane-2-carboxylic acid amide] | 44% | 33%
7 | 6.69 | 7.28 | NC(=O)N1C[C@H]2C[C@@H]1CN2Cc1cc2cc(Oc3nc4ncccc4s3)ccc2o1 [Example 101, (1R,4R)-5-[5-(Thiazolo[4,5-b]pyridin-2-yloxy)-benzofuran-2-ylmethyl]-2,5-diaza-bicyclo[2.2.1]heptane-2-carboxylic acid amide] | 53% | 65%
8 | 6.56 | 7.19 | CC(=O)N1C[C@H]2C[C@@H]1CN2Cc1cc2ccc(Oc3nc4ncccc4s3)cc2o1 [Example 107, (1R,4R)-1-{5-[6-(Thiazolo[4,5-b]pyridin-2-yloxy)-benzofuran-2-ylmethyl]-2,5-diaza-bicyclo[2.2.1]hept-2-yl}-ethanone] | 75% | 82%
9 | 7.15 | 7.38 | CN(C)Cc1cc2cc(Oc3nc4ncccc4s3)ccc2o1 [Example 112, Dimethyl-[5-(thiazolo[4,5-b]pyridin-2-yloxy)-benzofuran-2-ylmethyl]-amine] | 56% | 17%

The remaining lines, values behind:

Row | SMILES | pIC50 [1] | pIC50 [4] | inhibition at 30 mg/kg [2] | inhibition at 30 mg/kg [3]
10 | C[C@H]1COCCN1Cc1c[nH]c2cc(Oc3nc4ncccc4s3)ccc12 [Example 41, (3S)-2-[3-(3-Methyl-morpholin-4-ylmethyl)-1H-indol-6-yloxy]-thiazolo[4,5-b]pyridine] | 7.47 | 8.40 | 65% | 62%
11 | c1cnc2sc(Oc3ccc4c(CN5CCOCC5)c[nH]c4c3)nc2n1 [Example 56, 2-(3-Morpholin-4-ylmethyl-1H-indol-6-yloxy)-thiazolo[4,5-b]pyrazine] | 6.54 | 7.09 | 40% | 45%
12 | Fc1cnc2nc(Oc3ccc4c(CN5CCOCC5)c[nH]c4c3)sc2c1 [Example 58, 6-Fluoro-2-(3-morpholin-4-ylmethyl-1H-indol-6-yloxy)-thiazolo[4,5-b]pyridine] | 6.60 | 8.00 | 84% | 57%
13 | O=C(O)C1CCN(Cc2cc3cc(Oc4nc5ccccc5s4)ccc3o2)CC1 [Example 76, 1-[5-(Benzothiazol-2-yloxy)-benzofuran-2-ylmethyl]-piperidine-4-carboxylic acid] | 7.32 | 7.55 | 85% | 89%
14 | O=C(O)C1CCN(Cc2cc3ccc(Oc4nc5ccccc5s4)cc3o2)CC1 [Example 77, 1-[6-(Benzothiazol-2-yloxy)-benzofuran-2-ylmethyl]-piperidine-4-carboxylic acid] | 7.52 | 7.46 | 85% | 77%
15 | CC(=O)N1C[C@H]2CC[C@@H](C1)N2Cc1cc2cc(Oc3nc4ncccc4s3)ccc2o1 [Example 93, meso-1-{8-[5-(Thiazolo[4,5-b]pyridin-2-yloxy)-benzofuran-2-ylmethyl]-3,8-diaza-bicyclo[3.2.1]oct-3-yl}-ethanone] | 7.64 | 8.52 | 85% | 87%
16 | NC(=O)N[C@H]1C[C@H]2CC[C@@H](C1)N2Cc1cc2cc(Oc3nc4ncccc4s3)ccc2o1 [Example 103, meso-endo-N-{8-[5-(Thiazolo[4,5-b]pyridin-2-yloxy)-benzofuran-2-ylmethyl]-8-aza-bicyclo[3.2.1]oct-3-yl}-urea] | 6.88 | 8.40 | 0% | 18%
17 | CC(=O)N[C@@H]1C[C@H]2CC[C@@H](C1)N2Cc1cc2cc(Oc3nc4ncccc4s3)ccc2o1 [Example 104, meso-exo-N-{8-[5-(Thiazolo[4,5-b]pyridin-2-yloxy)-benzofuran-2-ylmethyl]-8-aza-bicyclo[3.2.1]oct-3-yl}-acetamide] | 7.80 | 8.00 | 83% | 92%
18 | CC(=O)N[C@@H]1C[C@H]2CC[C@@H](C1)N2Cc1cc2ccc(Oc3nc4ncccc4s3)cc2o1 [Example 106, meso-exo-N-{8-[6-(Thiazolo[4,5-b]pyridin-2-yloxy)-benzofuran-2-ylmethyl]-8-aza-bicyclo[3.2.1]oct-3-yl}-acetamide] | 7.85 | 8.15 | 85% | 81%
